According to patent US20230109489A1, “Compound and Use Thereof” (FELIQS CORPORATION, priority 2020, published 2023):

What was measured:
[1] = LO. scavenging ability, liposome-Fe2+ system (Fe stimulation), NBD-TEEPO fluorescence; type: biochemical; conditions: for R/L: ratio of activity value (R) of LO. scavenging ability to activity value (L) of LOO. scavenging ability / Fe stimulation (R): activity value of LO. scavenging ability: test compound 10 μmol/l; for Fe stimulation (R): activity value of LO. scavenging ability: FeSO4 1.0 mmol/l, liposomes, 37° C., 180 minutes, 1−(AUCSample/AUCControl)
Excerpt: As described above, the compound of the present invention has alkoxyl radical scavenging ability. The “alkoxyl radical scavenging ability” in the present invention means the ability to scavenge LO., for example. The LO. scavenging ability can be evaluated on the basis of its activity value, for example. The activity value of the LO. scavenging ability can be evaluated, for example, using the liposome-Fe^2+ system disclosed in WO 2019/009355. More specifically, it can be measured in a manner described in Example 1 below. As a specific example, the activity value of the LO. scavenging ability can be measured by performing the following steps (i) to (v): • (i) preparing a buffer solution containing a compound represented by the formula (A) and liposomes; • (ii) adding a divalent iron ion source material; • (iii) adding a test compound; • […] measuring a fluorescence; and • (v) determining the activity value of the test compound as per the following equation using the result of the fluorescence measurement.
Activity value of LO. scavenging ability=1−(AUCSample/AUCControl)
AUCSample: the area under the curve calculated from the fluorescence intensity measured in the presence of Fe^2+ and the test compound (n=1)
AUCControl: the area under the curve calculated from the fluorescence intensity measured in the presence of Fe^2+ and in the absence of the test compound
(§1) In step (i), the concentration of the compound represented by the formula (A) is, for example, 1 to 20 μmol/l and typically 5 μmol/l. The liposomes are prepared from, for example, egg-yolk phosphatidylcholine (Egg PC) and dihexadecyl hydrogen phosphate (DCP). The concentration of the egg-yolk phosphatidylcholine is, for example, 5 to 10 mg/ml and typically 2.5 mg/l. The concentration of the dihexadecyl hydrogen phosphate is, for example, 0.01 to 1 mg/ml and typically 0.1 mg/ml.
In step (ii), the concentration of the divalent iron ion source material is, for example, 0.5 to 5 mmol/l and typically 1 mmol/l. The divalent iron ion source material is, for example, iron(II) sulfate.
In step (iii), the concentration of the test compound is 5 to 100 μmol/l. A specific example of the concentration is 10 μmol/l.
In step (iv), the wavelength of excitation light at the time of measuring the fluorescence can be set to, for example, 470 nm; the fluorescence wavelength can be set to, for example, 530 nm; and the fluorescence intensity at 530 nm can be measured. The period for measuring the fluorescence is, for example, from 0 to 240 minutes at intervals of 0.1 to 5 minutes and typically 180 minutes at intervals of 3 minutes, with step (iii) being the start time, for example.
The following solutions were prepared: a solution A containing liposomes (10 mg/ml Egg PC, 0.4 mg/ml DCP) and 20 μmol/l NBD-TEEPO compound (compound represented by the formula (A)) in phosphate buffer (10 mmol/l, pH 7.4, 2.0% acetonitrile); and a solution B containing 4.0 mmol/l FeSO4 in distilled water. A 10 μl aliquot of each of the solutions A and B was dispensed using a Multidrop Combi (Thermo Fisher Scientific), and these aliquots were mixed together. The final concentrations of the respective components in the phosphate buffer (10 mmol/l, pH 7.4, 0.5% acetonitrile, 1% dimethyl sulfoxide (DMSO)) were as follows: the liposomes (2.5 mg/ml Egg PC, 0.1 mg/ml DCP), the NBD-TEEPO compound (5.0 μmol/l), a test compound (10 μmol/l), and FeSO4 (1.0 mmol/l). As the test compound, the compounds represented by the formulae (3) to (5) and (7) to (10) were used as compounds of examples, the compound (methyldopa) represented by the formula (1a) was used as a compound of a comparative example, and edaravone and a SCREEN-WELL® FDA-approved drug library (Enzo Life Sciences) were used as reference examples. The test compounds were dissolved in DMSO. […]

[2] = LOO. scavenging ability, liposome-AAPH system (AAPH stimulation), NBD-TEEPO fluorescence; type: biochemical; set-up: key: activity = 1 − (FluSample−FluBackground)/(FluControl−FluBackground); conditions: test compound 10 μmol/l, AAPH 20 mmol/l, liposomes, 37° C., after 40 minutes
Excerpt: As described above, the compound of the present invention has peroxyl radical scavenging ability. “Peroxyl radical scavenging ability” in the present invention means the ability to scavenge LOO., for example. The LOO. scavenging ability can be evaluated on the basis of its activity value, for example. The activity value of the LOO. scavenging ability can be evaluated using, for example, the liposome-AAPH (2,2′-azobis(2-amidinopropane)dihydrochloride) system disclosed in WO 2019/009355. More specifically, it can be measured in a manner described in Example 1 below. As a specific example, the activity value of the LOO. scavenging ability can be measured by performing the following steps (vi) to (x): • (vi) preparing a buffer solution containing a compound represented by the formula (A) and liposomes; • (vii) adding 2,2′-azobis(2-amidinopropane)dihydrochloride; • (viii) adding a test compound; • […] measuring a fluorescence; and • (x) determining the activity value of the test compound as per the following equation using the result of the fluorescence measurement.
Activity value of LOO. scavenging ability=1−(FluSample−FluBackground)/(FluControl−FluBackground)
Flusampie: the fluorescence intensity measured in the presence of AAPH and the test compound (n=1)
FluBackground: the fluorescence intensity measured in the absence of AAPH
FluControl: the fluorescence intensity measured in the presence of AAPH and in the absence of the test compound
as §1, with “(vi),” for “(i),”, “phosphatidylcholine” for “phosphatidylcholine (Egg PC)”, “phosphate.” for “phosphate (DCP).”, “mg/ml.” for “mg/l.”
In step (vii), the concentration of AAPH is, for example, 5 to 50 mmol/l and typically 20 mmol/l.
In step (viii), the concentration of the test compound is 5 to 100 μmol/l. A specific example of the concentration is 10 μmol/l.
In step (ix), the wavelength of excitation light at the time of measuring the fluorescence can be set to, for example, 470 nm; the fluorescence wavelength can be set to, for example, 530 nm; and the fluorescence intensity at 530 nm can be measured. The measurement of the fluorescence is performed, for example, after 1 to 120 minutes has elapsed and typically after 30 to 40 minutes has elapsed since step (viii).
The following solutions were prepared: a solution A containing liposomes (10 mg/ml Egg PC, 0.4 mg/ml DCP) and NBD-TEEPO compound (20 μmol/l) in phosphate buffer (10 mmol/l, pH 7.4, 2.0% acetonitrile); and a solution B containing 80 mmol/l AAPH in phosphate buffer (10 mmol/l, pH 7.4). A 10 μl aliquot of each of the solutions A and B was dispensed using a Multidrop Combi, and these aliquots were mixed together. The final concentrations of the respective components in the phosphate buffer (10 mmol/l, pH 7.4, 0.5% acetonitrile, 1% DMSO) were as follows: the liposomes (2.5 mg/ml Egg PC, 0.1 mg/ml DCP), the NBD-TEEPO compound (5.0 μmol/l), each of the test compounds (10 μmol/l), and AAPH (20 mmol/l).
While incubating the thus-obtained mixture at 37° C., the fluorescence intensity was measured after 40 minutes had elapsed since the mixing of the components. The fluorescence intensity was measured at an excitation wavelength of 470 nm and a fluorescence wavelength of 530 nm. Then, on the basis of the thus-measured fluorescence intensities, the activity value of the LOO. scavenging ability was calculated as per the above-described equation.

**Q.** Which results are given for `CC(C)COC(=O)[C@@](C)(N)Cc1ccc(O)c(O)c1` [Formula (5), isobutyl (S)-2-amino-3-(3,4-dihydroxyphenyl)-2-methylpropanoate]?
**A.** R/L: ratio of activity value (R) of LO. scavenging ability to activity value (L) of LOO. scavenging ability [1]: 1.19; Fe stimulation (R): activity value of LO. scavenging ability [1]: 0.539; AAPH stimulation (L): activity value of LOO. scavenging ability [2]: 0.452

**Q.** With `CCCOC(=O)[C@@](C)(N)Cc1ccc(O)c(O)c1` [Formula (7), propyl (S)-2-amino-3-(3,4-dihydroxyphenyl)-2-methylpropanoate] as the molecule, how does the “R/L: ratio of activity value (R) of LO. scavenging ability to activity value (L) of LOO. scavenging ability” value (shortened to “R/L: ratio of activity value”) [1] read?
**A.** Its value is 0.88.

**Q.** What about the “Fe stimulation (R): activity value of LO. scavenging ability” value (“Fe stimulation (R): activity value” below) [1] of the same molecule?
**A.** The value was 0.454.

**Q.** What about the “AAPH stimulation (L): activity value of LOO. scavenging ability” value (shortened to “AAPH stimulation (L): activity value”) [2] of the same molecule?
**A.** The value was 0.517.

**Q.** What does the source list for `CC1=NN(c2ccccc2)C(=O)C1` [Edaravone, 5-methyl-2-phenyl-2,4-dihydro-3H-pyrazol-3-one, reference compound]?
**A.** balance between the LO. scavenging ability and the LOO. scavenging ability (result in words) [1]: approximately the same level of scavenging ability against LO. and LOO.; R/L: ratio of activity value (R) of LO. scavenging ability to activity value (L) of LOO. scavenging ability [1]: 0.98; Fe stimulation (R): activity value of LO. scavenging ability [1]: 0.288; AAPH stimulation (L): activity value of LOO. scavenging ability [2]: 0.293

**Q.** What does the source list for `CC(C)OC(=O)[C@@](C)(N)Cc1ccc(O)c(O)c1` [Formula (8), isopropyl (S)-2-amino-3-(3,4-dihydroxyphenyl)-2-methylpropanoate]?
**A.** R/L: ratio of activity value (R) of LO. scavenging ability to activity value (L) of LOO. scavenging ability [1]: 0.95; Fe stimulation (R): activity value of LO. scavenging ability [1]: 0.327; AAPH stimulation (L): activity value of LOO. scavenging ability [2]: 0.346

**Q.** Which results are given for `CCOC(=O)[C@@](C)(N)Cc1ccc(O)c(O)c1` [(10)]?
**A.** R/L: ratio of activity value (R) of LO. scavenging ability to activity value (L) of LOO. scavenging ability [1]: 0.78; Fe stimulation (R): activity value of LO. scavenging ability [1]: 0.517; AAPH stimulation (L): activity value of LOO. scavenging ability [2]: 0.663

**Q.** Which “R/L: ratio of activity value” value [1] does the source give for `CCCCOC(=O)[C@@](C)(N)Cc1ccc(O)c(O)c1` [Formula (9), butyl (S)-2-amino-3-(3,4-dihydroxyphenyl)-2-methylpropanoate] here?
**A.** The value was 1.04.

**Q.** And the “Fe stimulation (R): activity value” value [1]?
**A.** The value was 0.313.

**Q.** And the “AAPH stimulation (L): activity value” value [2]?
**A.** The value was 0.301.

**Q.** Which “R/L: ratio of activity value” value [1] does the source give for `CCC(C)OC(=O)[C@@](C)(N)Cc1ccc(O)c(O)c1` (stereo partly drawn) [Formula (3), s-butyl (2S)-2-amino-3-(3,4-dihydroxyphenyl)-2-methylpropanoate] here?
**A.** The value was 1.04.

**Q.** What about the “Fe stimulation (R): activity value” value [1] of the same molecule?
**A.** The value was 0.754.

**Q.** What about the “AAPH stimulation (L): activity value” value [2] of the same molecule?
**A.** Its value is 0.726.

**Q.** Which “R/L: ratio of activity value” value [1] does the source give for `CC(C)(C)OC(=O)[C@@](C)(N)Cc1ccc(O)c(O)c1` [Formula (4), t-butyl (S)-2-amino-3-(3,4-dihydroxyphenyl)-2-methylpropanoate] here?
**A.** The value was 1.07.

**Q.** What about the “Fe stimulation (R): activity value” value [1] of the same molecule?
**A.** Its value is 0.654.

**Q.** And the “AAPH stimulation (L): activity value” value [2]?
**A.** The value was 0.610.
